What all share (test): inhibition of tumour cell growth, NCI panel, 48 h
In test [1] the test system is OVCAR-4 ovarian.
In test [2] the test system is UACC-62 melanoma.
For test [3], the system named is RXF 393 renal.
The subject of test [4] is RPMI-8226 leukemia.
Test [5] relates to NCI-H23 lung.
Test [6] relates to HOP-92 NSCLC.
The test system of test [7] is SNB-75 CNS.
Test [8] has as its system NCI/ADR-RES ovarian.
Test [9] deals with EKVX NSCLC.
Test [10] concerns OVCAR-5 ovarian.

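Step 1: Grow cells in 96-well plates. Step 2: Expose to compound for 48 hours at 5 concentrations. Step 3: Interpolate endpoints linearly; if unreached, use highest concentration. GI50 = concentration required for 50% inhibition of growth. TGI denotes the concentration required for complete inhibition of growth.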

Regarding `CC(C)C1=Cc2ccc3c(c2C(=O)C1=O)CCCC3`, the TGI in [1] was 3.16 µM; in test [2], 15.4 µM; in test [3], 7.82 µM; in [4], 6.6 µM; in test [5], 20.3 µM; in [6], 2.27 µM. For the same compound, the TGI in test [7] was 4.76 µM; in [8], 52.1 µM; in test [9] it was 19.2 µM; in test [10], 28.6 µM.

As for `Oc1ccc(N=Nc2ccc(Br)cc2)c(O)c1`, the GI50 in test [1] was 6.31 µM; in test [2], 3.01 µM; in [3], 1.19 µM; in test [4] it was 1.76 µM; in [5], 3.22 µM; in test [6] it was 1.1 µM. The GI50 in test [7] was 2.79 µM; in test [8], 3.07 µM; in test [9] it was 3.86 µM; in test [10], 5.75 µM. Besides, the TGI is more than 100 µM in [1]; 20.8 µM in [2]; 9.56 µM in [3]; 5.35 µM in test [4]; 26.9 µM in [5]; 6.96 µM in test [6]. Besides, the TGI in [7] was 21.8 µM; in test [8] it was 9.29 µM; in [9], 38.7 µM; in test [10], 75.5 µM.

As for `Cn1cnc([N+](=O)[O-])c1S(=O)(=O)Oc1ccc(Cl)cc1`, the GI50 in [2] was 13.2 µM; in test [3], 2.77 µM; in test [4], 3.58 µM; in test [5], 8.88 µM; in [6], 1.61 µM; in test [7] it was 14.1 µM. Also, the results for the GI50 in [8], in test [9] and in test [10] were 11.7 µM, 19.1 µM and 15.6 µM, respectively. Further, the TGI in test [2] came out at 29.1 µM; in [3], 8.01 µM; in test [4], 17.7 µM; in [5] it was 25.6 µM; in [6], 3.37 µM; in test [7], 29.7 µM. The TGI in test [8] was found to be 64.3 µM; in test [9], 49.6 µM; in test [10], 39.1 µM.

With `CCCN(CCC)c1ccc(/C=N/NC(=O)c2cccnc2)c(C)c1`, the GI50 in test [1] was 15.3 µM; in test [2], 11.4 µM; in test [3], 15.1 µM; in test [4] it was 19.4 µM; in test [5], 14.4 µM; in test [6], 11.3 µM. Besides, the GI50 in test [7] is 12.5 µM; in test [8], 15.2 µM; in test [9], 13.5 µM; in test [10], 13.1 µM. Also, the TGI in test [1] turned out to be 78.5 µM; in [2] it was 24.6 µM; in [3] it was 30.7 µM; in test [4], 68.7 µM; in [5], 32.1 µM; in [6], 26.2 µM. The TGI was found to be 36.1 µM in test [7], 51.5 µM in test [8], 37.2 µM in test [9] and 33.8 µM in [10].

For the compound `COc1ccc(Nc2ncc(I)c(NCCCNC(=O)C3CCC3)n2)cc1`, the GI50 was 9.31 µM in test [1]; 17.2 µM in [2]; 1.27 µM in test [3]; 10.3 µM in [4]; 5.26 µM in test [5]; 3.04 µM in test [6]. For the same compound, the GI50 was 0.464 µM in test [7], 12 µM in test [8], 6.48 µM in [9] and 8.28 µM in [10]. The TGI in test [1] came to 64.2 µM; in test [2], 43.2 µM; in [3], 6.54 µM; in test [4], 53.8 µM; in test [5] it was 46.9 µM; in test [6], 29.2 µM. Also, the TGI was 7.75 µM in test [7], more than 100 µM in test [8], 76.6 µM in test [9] and 68.5 µM in test [10].

As for `O=c1[nH]c(-c2ccc(Cl)c(Cl)c2)cn1-c1ccc(Cl)cc1`, the GI50 in test [1] is 19.7 µM; in test [2], 26.2 µM; in test [3], 32.7 µM; in test [4], 56.9 µM; in [5] it was 16.4 µM; in test [6], 15.9 µM. In addition, the GI50 in test [7] was 18.6 µM; in [8], 27.7 µM; in test [9] it was 35.4 µM; in test [10] it was 30.2 µM. Also, the TGI in test [1] was 35.3 µM; in test [2] it was 78.3 µM; in test [3] it was 56.4 µM; in test [4] it was more than 100 µM; in [5], 37.1 µM; in test [6], 46.3 µM. The TGI was 37.5 µM in test [7], more than 100 µM in test [8], more than 100 µM in [9] and more than 100 µM in test [10].

In the case of `COc1ccc(OC)c(N2CC(O)=C(c3nc4ccccc4s3)C2=N)c1`, the GI50 in [1] is 45.6 µM; in [2] it was 26.4 µM; in test [3], 95 µM; in [4], 35.7 µM; in [5], more than 100 µM; in [6] it was 40.6 µM. Besides, the GI50 in test [7] is 32 µM; in test [8] it was 88.9 µM; in test [9], 67.3 µM; in test [10], more than 100 µM. In addition, the TGI in test [1], in test [2], in test [3], in test [4], in [5] and in [6] was more than 100 µM throughout. In addition, the TGI in test [7], in [8], in test [9] and in [10] was more than 100 µM each time.

Consider `COc1cc2c(cc1OC)[C@@H]1C(=O)c3ccc4c(c3O[C@@H]1CO2)C[C@H](C(C)C)O4`, for which the GI50 in test [1] is 0.795 µM; in test [2] it was 9.24 µM; in test [3], 16.4 µM; in test [4], 0.0152 µM; in test [5] it was 0.0416 µM; in test [6] it was 2.04 µM. Moreover, the GI50 was 4.39 µM in test [7], 0.248 µM in [8], 0.239 µM in test [9] and 29.1 µM in test [10]. Also, the TGI in test [1] was more than 100 µM; in [2], more than 100 µM; in [3], more than 76.9 µM; in [4], 9.08 µM; in [5] it was more than 38 µM; in [6], 22.3 µM. For the same compound, the TGI is 23.8 µM in [7], more than 29.1 µM in [8], more than 48.2 µM in test [9] and more than 100 µM in test [10].

For the compound `COc1ccc2c(n1)Sc1nc3ccccc3nc1N2`, the TGI was more than 100 µM in [1]; 43.4 µM in test [2]; more than 100 µM in test [3]; more than 100 µM in test [4]; more than 100 µM in test [5]; more than 100 µM in test [6]. In addition, the TGI was more than 100 µM in test [7], more than 100 µM in test [8], 60.3 µM in test [9] and more than 100 µM in [10].

On to `CC(C)[C@@]12C[C@@H](OC(=O)C3CO3)[C@@](C)(O1)[C@@H]1CC[C@@H](C)[C@H]1[C@@H]2OC(=O)/C=C/c1ccccc1` (some centres not stated), for which the GI50 was 13.2 µM in test [1]; 14.9 µM in test [2]; 7.86 µM in test [3]; 20.4 µM in [4]; 17.8 µM in test [5]; 12.4 µM in [6]. Also, the GI50 in test [7] is 10.8 µM; in test [8], 10.8 µM; in test [9], 18.2 µM; in test [10], 19.3 µM. The TGI in test [1] amounted to 26.6 µM; in test [2], 34.4 µM; in test [3], 22.4 µM; in test [4], 55.2 µM; in test [5] it was 53.8 µM; in [6] it was 27.7 µM. Further, the TGI in test [7] is 30.9 µM; in test [8], 37.4 µM; in test [9], 50.9 µM; in test [10], 47.9 µM.

Turning to `COc1cc2c(/C=C3\C(=O)N(C)c4ccccc43)c[nH]c2cc1C`, the GI50 is more than 100 µM in test [1]; 1.29 µM in [2]; 2.56 µM in test [3]; 1.42 µM in test [4]; 5.33 µM in test [5]; 15.7 µM in [6]. Moreover, the GI50 is 4.34 µM in test [7], 0.65 µM in test [8], 8.81 µM in test [9] and 7.94 µM in test [10]. Also, the TGI in test [1] was more than 100 µM; in [2], more than 100 µM; in [3], 69.9 µM; in test [4] it was more than 20.1 µM; in test [5], more than 67.9 µM; in [6] it was 79.4 µM. Moreover, the TGI in test [7] was more than 100 µM; in test [8], 23.3 µM; in test [9], more than 100 µM; in test [10], more than 63.9 µM.

`OCC1OC(N2C=C(c3nc4ccccc4s3)C3C=CC=CC32)C(O)C(O)C1O` (configuration not stated): the GI50 was 12.5 µM in [2]; 18.9 µM in test [3]; 11.4 µM in test [4]; 15.6 µM in test [5]; 9.51 µM in [6]; 18.1 µM in test [7]. Also, the GI50 in test [8] was more than 50 µM; in test [9] it was 18.1 µM; in test [10] it was 16.5 µM. For the same compound, the TGI in test [2] is 36.8 µM; in [3], more than 50 µM; in [4], 36.4 µM; in test [5], more than 50 µM; in test [6], 30.2 µM; in [7], more than 50 µM. In addition, the TGI in [8], in test [9] and in test [10] was more than 50 µM throughout.

Take `COc1cccc(S(=O)(=O)NC2=NCCN2C(=S)SN2CCn3c2nsc3=S)c1`: the GI50 was 34.2 µM in test [1]; 28.6 µM in test [2]; 16.8 µM in test [3]; 26.1 µM in [4]; 44.4 µM in [6]; 30 µM in test [7]. Also, the GI50 is 52.4 µM in test [8], 95.7 µM in test [9] and 23 µM in test [10]. Further, the TGI is more than 100 µM in test [1]; more than 100 µM in [2]; 46.9 µM in [3]; 97.6 µM in [4]; more than 100 µM in [6]; 89.6 µM in test [7]. The TGI is more than 100 µM in test [8], more than 100 µM in [9] and 79.4 µM in test [10].

In the case of `CCCCCSc1ccc2nc(NC(=O)OCC)sc2c1`, the GI50 in test [3] was 1.03 µM; in [4], 1.04 µM; in test [5], 1.15 µM; in test [6] it was 1.44 µM; in [7], 0.41 µM; in [8], 0.357 µM. Besides, the values for the GI50 in [9] and in test [10] were 0.557 µM and 2.73 µM, respectively. For the same compound, the TGI is 9.19 µM in test [3]; more than 100 µM in [4]; more than 100 µM in [5]; 67.8 µM in [6]; 20.2 µM in test [7]; 3.82 µM in [8]. The TGI in [9] and in test [10] was more than 100 µM throughout.

Regarding `CCOC(=O)Cc1csc(NC(=O)C(OC(=O)c2ccc(Cl)cc2)c2ccccc2)n1` (configuration not stated), the GI50 in test [1] was 40.3 µM; in test [2] it was 20.3 µM; in test [3], 28.6 µM; in test [4], 17.1 µM; in [6], 27.2 µM; in test [7] it was 26.1 µM. The figures for the GI50 in test [8], in test [9] and in [10] were 41.1 µM, 59.6 µM and 38.5 µM, respectively. In addition, the TGI in [1] is more than 100 µM; in test [2] it was 46.5 µM; in test [3], 95.8 µM; in [4], 46.6 µM; in [6], more than 100 µM; in [7], 95.1 µM. Further, the TGI in [8], in test [9] and in [10] was more than 100 µM in each case.

For `Nc1nc(-c2cccnc2)cc(-c2cc(-c3cccnc3)nc(N)n2)n1`, the TGI in test [1], in test [2], in [3], in test [4], in [5] and in test [6] was more than 100 µM in each case. For the same compound, the TGI in test [8], in test [9] and in test [10] was more than 100 µM throughout.
